Results reported in paper PMC5471912, “Integrated metabolome and transcriptome analysis of Magnolia champaca identifies biosynthetic pathways for floral volatile organic compounds” (BMC Genomics, 2017).

Biological target: T1, McTPS1 (Magnolia champaca, UniProt A0A1Y0BW36)
T1 construct: gene TPS1; full-length ORF (plastid transit peptide apparently kept), N-terminal 6His tag (pDEST17), E. coli BL21 pLysS, Ni-NTA purified
T1 sequence (A0A1Y0BW36 1-581): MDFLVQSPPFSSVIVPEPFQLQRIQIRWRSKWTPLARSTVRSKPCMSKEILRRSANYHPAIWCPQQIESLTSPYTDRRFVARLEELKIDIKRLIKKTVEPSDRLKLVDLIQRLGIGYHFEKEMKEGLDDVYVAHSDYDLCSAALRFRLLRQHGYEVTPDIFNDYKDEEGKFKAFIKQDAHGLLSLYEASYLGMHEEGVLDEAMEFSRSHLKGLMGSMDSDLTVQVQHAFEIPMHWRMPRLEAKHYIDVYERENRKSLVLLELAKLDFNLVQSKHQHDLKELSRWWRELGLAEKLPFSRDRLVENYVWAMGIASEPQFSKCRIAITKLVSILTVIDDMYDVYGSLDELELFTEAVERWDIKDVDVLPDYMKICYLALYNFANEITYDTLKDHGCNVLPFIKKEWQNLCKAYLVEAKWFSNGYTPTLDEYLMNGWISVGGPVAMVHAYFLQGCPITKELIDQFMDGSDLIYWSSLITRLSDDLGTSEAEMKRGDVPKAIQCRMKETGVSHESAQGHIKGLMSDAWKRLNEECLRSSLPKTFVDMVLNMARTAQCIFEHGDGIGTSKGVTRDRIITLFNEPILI
Assay: in vitro TPS assay, chiral phase GC-MS
Type: biochemical
Details: 25 mM HEPES pH 7.4, 100 mM KCl, 7.5 mM MgCl2, 5 mM DTT (1X of the 2X buffer), 30 °C, 2 h

C=C[C@](C)(O)CCC=C(C)C [(R)-linalool]
in vitro TPS assay, chiral phase GC-MS (from GPP): our in vitro assays identified McTPS1 as the (R)-linalool synthase

CC(C)=CCC/C(C)=C/COP(=O)(O)OP(=O)(O)O [geranyl diphosphate]
in vitro TPS assay, chiral phase GC-MS: McTPS1 reacted with GPP to produce (R)-linalool, a monoterpene alcohol
